Where “and” joins values, the source holds several entries; their conditions need not be identical. Equal values may be shown once. Read-outs that look alike come from different tables or passages of the source. Each block holds one molecule with its values, some of them ahead of it.
How the values were obtained:
[1] = amide bond, 13-membered ring, DMF
[2] = target: T1, CFTR (Homo sapiens, UniProt P13569); assay: Membrane Potential Dye, Enteroid Assay A; assay type: cell-based; details: for EC50: read-out: Ent. A EC50
Procedure, shortened: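 Primary human intestinal enteroid cells exposed to compound for 18–24 hours at 37 °C, then loaded 25 min with methyl oxonol membrane potential dye plus CaCC inhibitors. Chloride transport triggered in chloride-free buffer with 10 μM forskolin, 100 μM IBMX and 300 nM Compound III, fluorescence read 15 min; % Activity relative to a triple-combination corrector/potentiator control.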

[3] = amide bond, 13-membered ring, DMF; remark: listed apart in the source
[4] = target: T1, CFTR; assay: Membrane Potential Dye, Enteroid Assay B; assay type: cell-based; details: for EC50: read-out: Ent. B EC50
Procedure, shortened: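 Activity given as % of a triple-combination reference (1 μM and 3 μM correctors, 300 nM acute potentiator). Enteroids were preincubated 18-24 h with compound; chloride efflux then measured 15 min by methyl oxonol fluorescence after forskolin/IBMX/Compound III stimulation in chloride-free buffer containing CaCCinh-A01 and Chicago Sky Blue.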

T1 sequence (P13569 with tags, fused parts or gaps DEL508-508): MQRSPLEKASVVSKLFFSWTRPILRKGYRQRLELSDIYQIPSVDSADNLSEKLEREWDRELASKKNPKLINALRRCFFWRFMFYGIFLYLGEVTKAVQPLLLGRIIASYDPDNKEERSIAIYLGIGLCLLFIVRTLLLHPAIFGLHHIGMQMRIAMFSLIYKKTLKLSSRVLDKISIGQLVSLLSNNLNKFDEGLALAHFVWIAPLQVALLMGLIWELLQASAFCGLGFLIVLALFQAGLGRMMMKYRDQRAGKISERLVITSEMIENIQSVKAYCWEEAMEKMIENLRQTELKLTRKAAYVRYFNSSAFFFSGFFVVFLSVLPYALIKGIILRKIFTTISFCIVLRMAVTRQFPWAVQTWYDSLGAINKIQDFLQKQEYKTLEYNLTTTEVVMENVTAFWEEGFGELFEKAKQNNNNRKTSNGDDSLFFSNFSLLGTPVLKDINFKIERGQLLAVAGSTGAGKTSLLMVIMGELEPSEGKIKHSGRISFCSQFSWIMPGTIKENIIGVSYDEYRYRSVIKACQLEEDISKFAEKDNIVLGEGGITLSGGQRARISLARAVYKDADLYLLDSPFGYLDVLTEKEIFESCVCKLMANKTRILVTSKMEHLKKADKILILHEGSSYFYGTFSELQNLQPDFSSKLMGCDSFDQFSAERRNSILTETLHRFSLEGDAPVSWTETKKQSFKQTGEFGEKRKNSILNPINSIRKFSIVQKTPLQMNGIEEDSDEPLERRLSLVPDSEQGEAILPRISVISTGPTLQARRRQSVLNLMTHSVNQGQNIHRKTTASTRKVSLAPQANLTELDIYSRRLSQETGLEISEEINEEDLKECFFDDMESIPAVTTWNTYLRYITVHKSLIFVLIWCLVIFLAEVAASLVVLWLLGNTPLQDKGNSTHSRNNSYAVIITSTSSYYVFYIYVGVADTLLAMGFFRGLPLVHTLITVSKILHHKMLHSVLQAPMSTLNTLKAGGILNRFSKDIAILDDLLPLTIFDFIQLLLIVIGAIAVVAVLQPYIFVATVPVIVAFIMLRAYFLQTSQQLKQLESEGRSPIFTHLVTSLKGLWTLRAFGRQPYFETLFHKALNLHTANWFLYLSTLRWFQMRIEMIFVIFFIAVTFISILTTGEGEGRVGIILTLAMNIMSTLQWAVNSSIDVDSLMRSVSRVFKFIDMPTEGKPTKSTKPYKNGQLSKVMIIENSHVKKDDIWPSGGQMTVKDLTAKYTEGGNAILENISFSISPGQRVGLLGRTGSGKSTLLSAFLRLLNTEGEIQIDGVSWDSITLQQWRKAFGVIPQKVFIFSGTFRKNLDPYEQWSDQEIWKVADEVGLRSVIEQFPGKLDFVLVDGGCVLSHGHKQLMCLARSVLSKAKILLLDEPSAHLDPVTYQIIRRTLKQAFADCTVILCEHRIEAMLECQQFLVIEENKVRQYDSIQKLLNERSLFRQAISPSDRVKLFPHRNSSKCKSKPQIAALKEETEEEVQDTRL

SMILES: COC(=O)C1CC2(C1)CC(N1C(=O)c3cccc(c3)S(=O)(=O)Nc3nc(cc(-c4c(C)cccc4C)n3)OC[C@H]1CCC(C)C)C2 (some centres unmarked)
ring closure, isolated yield ([1]; HATU/DIEA, 25.0 °C, 2 steps): 20%

SMILES: COC(=O)C1CC(N2C(=O)c3cccc(c3)S(=O)(=O)Nc3nc(cc(-c4c(C)cccc4C)n3)OC[C@H]2CC(C)(C)C)C1 (some centres unmarked)
ring closure, isolated yield ([1]; from COC(=O)C1CC(N[C@@H](COc2cc(-c3c(C)cccc3C)nc(NS(=O)(=O)c3cccc(C(=O)O)c3)n2)CC(C)(C)C)C1, COMU/DIEA, 25.2 mM, 25.0 °C, 21.0 h): 25% and 34%

SMILES: Cc1cccc(C)c1-c1cc2nc(n1)NS(=O)(=O)c1cccc(c1)C(=O)N(C1CC3(CCN(C(=O)OC(C)(C)C)CC3)C1)C[C@@H](C)O2
ring closure, isolated yield ([1]; from Cc1cccc(C)c1-c1cc(O[C@H](C)CNC2CC3(CCN(C(=O)OC(C)(C)C)CC3)C2)nc(NS(=O)(=O)c2cccc(C(=O)O)c2)n1, HATU/DIEA, 8.8 mM, 6.0 h, 2 steps): 28%

SMILES: Cc1cccc(C)c1-c1cc2nc(n1)NS(=O)(=O)c1cccc(c1)C(=O)N(C1CC(OCc3ccccc3)C1)[C@H](CC(C)C)CO2 (some centres unmarked)
ring closure, isolated yield ([1]; from Cc1cccc(C)c1-c1cc(OC[C@@H](CC(C)C)NC2CC(OCc3ccccc3)C2)nc(NS(=O)(=O)c2cccc(C(=O)O)c2)n1, HATU/DIEA, 77.3 mM, 15.0 h): 85%

SMILES: Cc1cccc(C)c1-c1cc2nc(n1)NS(=O)(=O)c1cccc(c1)C(=O)N(C1CC(C(=O)OC(C)C)(C(=O)OC(C)C)C1)[C@H](CC(C)(C)C)CO2
ring closure, isolated yield ([1]; from Cc1cccc(C)c1-c1cc(OC[C@@H](CC(C)(C)C)NC2CC(C(=O)OC(C)C)(C(=O)OC(C)C)C2)nc(NS(=O)(=O)c2cccc(C(=O)O)c2)n1, COMU/DIEA, 18.6 mM, 25.0 °C, 21.0 h): 20%

SMILES: COC(=O)CC1CC(N2C(=O)c3cccc(c3)S(=O)(=O)Nc3nc(cc(-c4c(C)cccc4C)n3)OC[C@H]2CC(C)(C)C)C1 (some centres unmarked)
ring closure, isolated yield ([1]; from COC(=O)CC1CC(N[C@@H](COc2cc(-c3c(C)cccc3C)nc(NS(=O)(=O)c3cccc(C(=O)O)c3)n2)CC(C)(C)C)C1, COMU/DIEA, 47.0 mM, 18.0 h): 79%

SMILES: CC(C)C[C@@H]1COc2cc(Cl)nc(n2)NS(=O)(=O)c2cccc(c2)C(=O)N1C1CC2(CC2)C1
ring closure, isolated yield ([1]; from CC(C)C[C@H](COc1cc(Cl)nc(NS(=O)(=O)c2cccc(C(=O)O)c2)n1)NC1CC2(CC2)C1, HATU/DIEA, 16.5 mM, 17.0 h): 58%

Ent. A Max Activity (%) [2]: ++ (++ is 30-60%)
EC50 [2]: < 1 µM
SMILES: Cc1cccc(C)c1-c1cc2nc(n1)NS(=O)(=O)c1cccc(c1)C(=O)N(C1CC3(CCC3)C1)[C@H](CC(C)C)CO2 [Compound 32, (11R)-6-(2,6-dimethylphenyl)-11-isobutyl-2,2-dioxo-12-spiro[3.3]heptan-2-yl-9-oxa-2λ^6-thia-3,5,12,19-tetrazatricyclo[12.3.1.14,8]nonadeca-1(18),4(19),5,7,14,16-hexaen-13-one]
ring closure, yield after HPLC ([3]; from Cc1cccc(C)c1-c1cc(OC[C@@H](CC(C)C)NC2CC3(CCC3)C2)nc(NS(=O)(=O)c2cccc(C(=O)O)c2)n1, HATU/DIEA, 25.0 °C, 2.0 h, 2 steps): 44%

SMILES: CC(C)C[C@@H]1COc2cc(Cl)nc(n2)NS(=O)(=O)c2cccc(c2)C(=O)N1C1CC2(CCN(C(=O)OC(C)(C)C)CC2)C1
ring closure, isolated yield ([1]; from CC(C)C[C@H](COc1cc(Cl)nc(NS(=O)(=O)c2cccc(C(=O)O)c2)n1)NC1CC2(CCN(C(=O)OC(C)(C)C)CC2)C1, HATU/TEA, 154.9 mM, 25.0 °C, 16.0 h): 41%

SMILES: Cc1cccc(C)c1-c1cc2nc(n1)NS(=O)(=O)c1cccc(c1)C(=O)N(C1CC3(C1)CN(C(=O)OC(C)(C)C)C3)[C@H](CC1(C(F)(F)F)CC1)CO2
ring closure, isolated yield ([1]; from Cc1cccc(C)c1-c1cc(OC[C@@H](CC2(C(F)(F)F)CC2)NC2CC3(C2)CN(C(=O)OC(C)(C)C)C3)nc(NS(=O)(=O)c2cccc(C(=O)O)c2)n1, HATU/TEA, 35.1 mM, 22.0 h): 49%

SMILES: Cc1cccc(C)c1-c1cc2nc(n1)NS(=O)(=O)c1cccc(c1)C(=O)N(C1CC3(C1)CC1(C3)OCCO1)[C@H](CC(C)(C)C)CO2
ring closure, isolated yield ([1]; from Cc1cccc(C)c1-c1cc(OC[C@@H](CC(C)(C)C)NC2CC3(C2)CC2(C3)OCCO2)nc(NS(=O)(=O)c2cccc(C(=O)O)c2)n1, COMU/DIEA, 71.6 mM, 16.0 h): 76%

Ent. A Max Activity (%) [2]: ++ (++ is 30-60%)
EC50 [2]: < 1 µM
SMILES: Cc1cccc(C)c1-c1cc2nc(n1)NS(=O)(=O)c1cccc(c1)C(=O)N(C1CC3(CC3)C1)[C@H](CCC(C)C)CO2 [Compound 3, (11R)-6-(2,6-Dimethylphenyl)-11-isopentyl-2,2-dioxo-12-spiro[2.3]hexan-5-yl-9-oxa-2λ^6-thia-3,5,12,19-tetrazatricyclo[12.3.1.14,8]nonadeca-1(18),4(19),5,7,14,16-hexaen-13-one]
ring closure, yield after HPLC ([3]; from Cc1cccc(C)c1-c1cc(OC[C@@H](CCC(C)C)NC2CC3(CC3)C2)nc(NS(=O)(=O)c2cccc(C(=O)O)c2)n1, HATU/DIEA, 25.0 °C, 3.0 h, 2 steps): 8%

Ent. A Max Activity (%) [2]: ++ (++ is 30-60%)
EC50 [2]: 1 to 3 µM
SMILES: Cc1cccc(C)c1-c1cc2nc(n1)NS(=O)(=O)c1cccc(c1)C(=O)N(C1CC3(CC3)C1)[C@H](C)CO2 [Compound 126, (11R)-6-(2,6-dimethylphenyl)-11-methyl-12-{spiro[2.3]hexan-5-yl}-9-oxa-2λ^6-thia-3,5,12,19-tetraazatricyclo[12.3.1.14,8]nonadeca-1(17),4(19),5,7,14(18),15-hexaene-2,2,13-trione]
ring closure, yield after HPLC ([3]; from Cc1cccc(C)c1-c1cc(OC[C@@H](C)NC2CC3(CC3)C2)nc(NS(=O)(=O)c2cccc(C(=O)O)c2)n1, HATU/TEA, 20.9 mM, 96.0 h): 47%

Ent. A Max Activity (%) [2]: +++ (+++ is >60%)
EC50 [2]: < 1 µM
SMILES: Cc1cccc(C)c1-c1cc2nc(n1)NS(=O)(=O)c1cccc(c1)C(=O)N(C1CC3(CCOCC3)C1)[C@H](CC(C)C)CO2 [Compound 31, (11R)-6-(2,6-Dimethylphenyl)-11-isobutyl-12-(7-oxaspiro[3.5]nonan-2-yl)-2,2-dioxo-9-oxa-2λ^6-thia-3,5,12,19-tetrazatricyclo[12.3.1.14,8]nonadeca-1(18),4(19),5,7,14,16-hexaen-13-one]
ring closure, yield after HPLC ([3]; from Cc1cccc(C)c1-c1cc(OC[C@@H](CC(C)C)NC2CC3(CCOCC3)C2)nc(NS(=O)(=O)c2cccc(C(=O)O)c2)n1, HATU/DIEA, 25.0 °C, 2.0 h, 2 steps): 28%

Ent. B Max Activity (%) [4]: +++ (+++ is >60%)
EC50 [4]: < 1 µM
Ent. A Max Activity (%) [2]: +++ (+++ is >60%)
EC50 [2]: < 1 µM
SMILES: Cc1cccc(C)c1-c1cc2nc(n1)NS(=O)(=O)c1cccc(c1)C(=O)N(C1CC3(CC3)C1)[C@H](CC(C)(C)C)CO2 [Compound 182, (11R)-6-(2,6-Dimethylphenyl)-11-(2,2-dimethylpropyl)-2,2-dioxo-12-spiro[2.3]hexan-5-yl-9-oxa-2λ^6-thia-3,5,12,19-tetrazatricyclo[12.3.1.14,8]nonadeca-1(18),4(19),5,7,14,16-hexaen-13-one]
ring closure, yield after HPLC ([3]; from Cc1cccc(C)c1-c1cc(OC[C@@H](CC(C)(C)C)NC2CC3(CC3)C2)nc(NS(=O)(=O)c2cccc(C(=O)O)c2)n1, HATU/DIEA, 26.5 mM, 6.0 h): 54%

Ent. B Max Activity (%) [4]: +++ (+++ is >60%)
EC50 [4]: < 1 µM
Ent. A Max Activity (%) [2]: +++ (+++ is >60%)
EC50 [2]: < 1 µM
SMILES: Cc1cccc(C)c1-c1cc2nc(n1)NS(=O)(=O)c1cccc(c1)C(=O)N(C1CC3(CCN(CC(F)(F)F)CC3)C1)[C@H](CC(C)C)CO2 [Compound 18, (11R)-6-(2,6-dimethylphenyl)-11-isobutyl-2,2-dioxo-12-[7-(2,2,2-trifluoroethyl)-7-azaspiro[3.5]nonan-2-yl]-9-oxa-2λ^6-thia-3,5,12,19-tetrazatricyclo[12.3.1.14,8]nonadeca-1(18),4(19),5,7,14,16-hexaen-13-one]
ring closure, yield after HPLC ([3]; from Cc1cccc(C)c1-c1cc(OC[C@@H](CC(C)C)NC2CC3(CCN(CC(F)(F)F)CC3)C2)nc(NS(=O)(=O)c2cccc(C(=O)O)c2)n1, HATU/DIEA, 25.0 °C, 2.0 h, 2 steps): 17%

Ent. A Max Activity (%) [2]: +++ (+++ is >60%)
EC50 [2]: < 1 µM
SMILES: Cc1cccc(C)c1-c1cc2nc(n1)NS(=O)(=O)c1cccc(c1)C(=O)N(C1CC3(CC3)C1)[C@H](CC1CCCCC1)[C@@H](C1CC1)O2 [Compound 1, (10R,11R)-11-(Cyclohexylmethyl)-10-cyclopropyl-6-(2,6-dimethylphenyl)-2,2-dioxo-12-spiro[2.3]hexan-5-yl-9-oxa-2λ^6-thia-3,5,12,19-tetrazatricyclo[12.3.1.14,8]nonadeca-1(18),4(19),5,7,14,16-hexaen-13-one]
ring closure, yield after HPLC ([3]; from Cc1cccc(C)c1-c1cc(O[C@H](C2CC2)[C@@H](CC2CCCCC2)NC2CC3(CC3)C2)nc(NS(=O)(=O)c2cccc(C(=O)O)c2)n1, COMU/TEA, 10.8 mM, 25.0 °C, 1.0 h): 31%

Ent. A Max Activity (%) [2]: +++ (+++ is >60%)
EC50 [2]: < 1 µM
SMILES: Cc1cccc(C)c1-c1cc2nc(n1)NS(=O)(=O)c1cccc(c1)C(=O)N(C1CC(C)(C)C1)[C@H](CC(C)C)CO2 [Compound 28, (11R)-12-(3,3-Dimethylcyclobutyl)-6-(2,6-dimethylphenyl)-11-isobutyl-2,2-dioxo-9-oxa-2λ^6-thia-3,5,12,19-tetrazatricyclo[12.3.1.14,8]nonadeca-1(18),4(19),5,7,14,16-hexaen-13-one]
ring closure, yield after HPLC ([3]; from Cc1cccc(C)c1-c1cc(OC[C@@H](CC(C)C)NC2CC(C)(C)C2)nc(NS(=O)(=O)c2cccc(C(=O)O)c2)n1, HATU/DIEA, 18.9 mM, 25.0 °C, 2.0 h): 60%

Reference: patent US20230382925A1, “MODULATORS OF CYSTIC FIBROSIS TRANSMEMBRANE CONDUCTANCE REGULATOR” (VERTEX PHARMACEUTICALS INCORPORATED, priority 2020, published 2023)
